Source: US11078198B2 (BRISTOL-MYERS SQUIBB COMPANY, priority 2017, dated 2021)

Biological target: T1, human FXR (Homo sapiens, UniProt Q96RI1)
T1 construct: expressed in transfected cells; host or cells: HEK293 cells stably carrying a 5xGal4-response-element firefly luciferase reporter, transiently transfected with pcDNA3.1-Gal4-FXR
T1 sequence (Q96RI1 262-486 limits assumed): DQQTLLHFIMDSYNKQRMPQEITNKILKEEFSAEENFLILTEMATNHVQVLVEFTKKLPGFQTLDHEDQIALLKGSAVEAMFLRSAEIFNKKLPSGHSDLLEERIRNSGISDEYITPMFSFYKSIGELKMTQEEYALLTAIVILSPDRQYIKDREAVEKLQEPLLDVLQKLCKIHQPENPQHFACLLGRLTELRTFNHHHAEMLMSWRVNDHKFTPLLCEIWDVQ
Experiment: transient human FXR/Gal4-luciferase reporter assay
Format: cell-based
Settings: Gal4-hFXR transfected HEK293 reporter cells; relative to 8 μM GW-4064
In short: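 Transient Gal4-hFXR LBD fusion (pcDNA3.1, Lipofectamine, overnight) expressed in a HEK293 reporter line stably bearing five Gal4 elements upstream of firefly luciferase, grown in charcoal/dextran-stripped FBS. Compound dilutions in DMSO incubated with cells overnight at 37° C, 5% CO2, before luciferase readout.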

SMILES	EC50 [nM]
O=C(O[C@@H]1O[C@H](C(=O)O)[C@@H](O)[C@H](O)[C@H]1O)c1cc(C(F)(F)F)c2cc(N3CCC4(C=C(c5c(-c6c(Cl)cncc6Cl)noc5C5CC5)C4)CC3)ccc2n1 [Example 224, (2S,3S,4S,5R,6S)-6-((6-(2-(5-Cyclopropyl-3-(3,5-dichloropyridin-4-yl)isoxazol-4-yl)-7-azaspiro[3.5]non-1-en-7-yl)-4-(trifluoromethyl)quinoline-2-carbonyl)oxy)-3,4,5-trihydroxytetrahydro-2H-pyran-2-carboxylic acid]	73
O=C(O)c1cc(F)c2nc(N3CCC4(C=C(c5c(-c6c(F)cccc6Cl)noc5C5CC5)C4)CC3)sc2c1 [Example 136, 2-(2-(3-(2-Chloro-6-fluorophenyl)-5-cyclopropylisoxazol-4-yl)-7-azaspiro[3.5]non-1-en-7-yl)-4-fluorobenzo[d]thiazole-6-carboxylic acid]	37
O=C(O)c1cc(C(F)(F)F)c2cc(N3CCC4(C=C(c5c(-c6c(Cl)cccc6Cl)noc5C5CC5)C4)CC3)ccc2n1 [Example 83, 6-(2-(5-Cyclopropyl-3-(2,6-dichlorophenyl)isoxazol-4-yl)-7-azaspiro[3.5]non-1-en-7-yl)-4-(trifluoromethyl)quinoline-2-carboxylic acid]	38
Cc1c(N2CCC3(C=C(c4c(-c5c(Cl)cccc5Cl)noc4C4CC4)C3)CC2)ccc2cc(C(=O)O)cnc12 [Example 132, 7-(2-(5-Cyclopropyl-3-(2,6-dichlorophenyl)isoxazol-4-yl)-7-azaspiro[3.5]non-1-en-7-yl)-8-methylquinoline-3-carboxylic acid]	958
COc1cncc(F)c1-c1noc(C2CC2)c1C1=CC2(CCN(c3nc4c(F)cc(C(=O)O)cc4s3)CC2)C1 [Example 69, 2-(2-(5-Cyclopropyl-3-(3-fluoro-5-methoxypyridin-4-yl)isoxazol-4-yl)-7-azaspiro[3.5]non-1-en-7-yl)-4-fluorobenzo[d]thiazole-6-carboxylic acid]	730
CC(C)NC(=O)c1cc(F)c2nc(N3CCC4(C=C(c5c(-c6c(Cl)cncc6Cl)noc5C5CC5)C4)CC3)sc2c1 [Example 199, 2-(2-(5-Cyclopropyl-3-(3,5-dichloropyridin-4-yl)isoxazol-4-yl)-7-azaspiro[3.5]non-1-en-7-yl)-4-fluoro-N-isopropylbenzo[d]thiazole-6-carboxamide]	431
Cc1cc(C(=O)O)nc(N2CCC3(C=C(c4c(-c5c(Cl)cccc5Cl)noc4C4CC4)C3)CC2)n1 [Example 120, 2-(2-(5-Cyclopropyl-3-(2,6-dichlorophenyl)isoxazol-4-yl)-7-azaspiro[3.5]non-1-en-7-yl)-6-methylpyrimidine-4-carboxylic acid]	1390
O=C(O)c1nc(C(F)(F)F)n2cc(N3CCC4(C=C(c5c(-c6ccccc6OC(F)(F)F)noc5C5CC5)C4)CC3)ccc12 [Example 166, 6-(2-(5-Cyclopropyl-3-(2-(trifluoromethoxy)phenyl)isoxazol-4-yl)-7-azaspiro[3.5]non-1-en-7-yl)-3-(trifluoromethyl)imidazo[1,5-a]pyridine-1-carboxylic acid]	494
O=C(O)c1ncc(N2CCC3(C=C(c4c(-c5c(Cl)cccc5Cl)noc4C4CC4)C3)CC2)cn1 [Example 22, 5-(2-(5-Cyclopropyl-3-(2,6-dichlorophenyl)isoxazol-4-yl)-7-azaspiro[3.5]non-1-en-7-yl) pyrimidine-2-carboxylic acid]	1500
O=C(O)c1cc2ccc(N3CCC4(C=C(c5c(-c6c(F)cccc6Cl)noc5C5CC5)C4)CC3)cc2nn1 [Example 56, 7-(2-(3-(2-Chloro-6-fluorophenyl)-5-cyclopropylisoxazol-4-yl)-7-azaspiro[3.5]non-1-en-7-yl)cinnoline-3-carboxylic acid]	194
O=C(O)c1cc2ccc(N3CCC4(C=C(c5c(-c6ncccc6Cl)noc5C5CC5)C4)CC3)cc2cn1 [Example 161, 7-(2-(3-(3-Chloropyridin-2-yl)-5-cyclopropylisoxazol-4-yl)-7-azaspiro[3.5]non-1-en-7-yl) isoquinoline-3-carboxylic acid]	2320
O=C(O)c1cc(OCCO)c2cc(N3CCC4(C=C(c5c(-c6c(Cl)cncc6Cl)noc5C5CC5)C4)CC3)ccc2n1 [Example 142, 6-(2-(5-Cyclopropyl-3-(3,5-dichloropyridin-4-yl)isoxazol-4-yl)-7-azaspiro[3.5]non-1-en-7-yl)-4-(2-hydroxyethoxy)quinoline-2-carboxylic acid]	147
O=C(O)c1cc(F)c2nc(N3CCC4(C=C(c5c(C(F)F)cnn5-c5c(Cl)cncc5Cl)C4)CC3)sc2c1 [Example 216, 2-(2-(1-(3,5-Dichloropyridin-4-yl)-4-(difluoromethyl)-1H-pyrazol-5-yl)-7-azaspiro[3.5]non-1-en-7-yl)-4-fluorobenzo[d]thiazole-6-carboxylic acid]	88
O=C(O)c1ccc(N2CCC3(C=C(c4c(C(F)F)cnn4-c4ccccc4OC(F)(F)F)C3)CC2)nc1 [Example 218, 6-(2-(4-(Difluoromethyl)-1-(2-(trifluoromethoxy)phenyl)-1H-pyrazol-5-yl)-7-azaspiro[3.5]non-1-en-7-yl)nicotinic acid]	1080
O=C(O)c1ccc2cc(N3CCC4(C=C(c5c(-c6ncccc6Cl)noc5C5CC5)C4)CC3)ccc2n1 [Example 152, 6-(2-(3-(3-Chloropyridin-2-yl)-5-cyclopropylisoxazol-4-yl)-7-azaspiro[3.5]non-1-en-7-yl)quinoline-2-carboxylic acid]	1630
O=C(O)c1cc(C(F)(F)F)c2cc(N3CCC4(C=C(c5c(-c6ncccc6Cl)noc5C5CC5)C4)CC3)ccc2n1 [Example 91, 6-(2-(3-(3-Chloropyridin-2-yl)-5-cyclopropylisoxazol-4-yl)-7-azaspiro[3.5]non-1-en-7-yl)-4-(trifluoromethyl)quinoline-2-carboxylic acid]	219
O=C(O)c1cc(C(F)(F)F)cc2nc(N3CCC4(C=C(c5c(-c6c(Cl)cncc6Cl)noc5C5CC5)C4)CC3)ccc12 [Example 60, 2-(2-(5-Cyclopropyl-3-(3,5-dichloropyridin-4-yl)isoxazol-4-yl)-7-azaspiro[3.5]non-1-en-7-yl)-7-(trifluoromethyl)quinoline-5-carboxylic acid]	7.2
O=C(O)c1ccc(N2CCC3(CC2)COC(c2c(-c4ccccc4OC(F)(F)F)noc2C2CC2)O3)nc1 (stereo not drawn) [Example 43, 6-(2-(5-Cyclopropyl-3-(2-(trifluoromethoxy)phenyl)isoxazol-4-yl)-1,3-dioxa-8-azaspiro[4.5]decan-8-yl)nicotinic acid]	5300
O=C(O)c1ccc2nc(N3CCC4(C=C(c5c(-c6ccccc6C(F)(F)F)noc5C5CC5)C4)CC3)sc2n1 [Example 102, 2-(2-(5-Cyclopropyl-3-(2-(trifluoromethyl)phenyl)isoxazol-4-yl)-7-azaspiro[3.5]non-1-en-7-yl)thiazolo[5,4-b]pyridine-5-carboxylic acid]	18
O=C(O)c1cc(C(F)(F)F)c2cc(N3CCC4(C=C(c5c(-c6c(F)cncc6F)noc5C5CC5)C4)CC3)ccc2n1 [Example 93, 6-(2-(5-Cyclopropyl-3-(3,5-difluoropyridin-4-yl)isoxazol-4-yl)-7-azaspiro[3.5]non-1-en-7-yl)-4-(trifluoromethyl)quinoline-2-carboxylic acid]	511
NS(=O)(=O)NC(=O)c1cc(F)c2nc(N3CCC4(C=C(c5c(-c6c(Cl)cncc6Cl)noc5C5CC5)C4)CC3)sc2c1 [Example 197, 2-(2-(5-Cyclopropyl-3-(3,5-dichloropyridin-4-yl)isoxazol-4-yl)-7-azaspiro[3.5]non-1-en-7-yl)-4-fluoro-N-sulfamoylbenzo[d]thiazole-6-carboxamide]	381
CC(C)c1onc(-c2c(Cl)cccc2Cl)c1C1=CC2(CCN(c3ccc4nc(C(=O)O)cc(C(F)(F)F)c4c3)CC2)C1 [Example 84, 6-(2-(3-(2,6-Dichlorophenyl)-5-isopropylisoxazol-4-yl)-7-azaspiro[3.5]non-1-en-7-yl)-4-(trifluoromethyl)quinoline-2-carboxylic acid]	127
Cn1cc(C(=O)O)c2ccc(N3CCC4(C=C(c5c(C6CCCCC6)noc5C5CC5)C4)CC3)cc21 [Example 168, 6-(2-(3-Cyclohexyl-5-cyclopropylisoxazol-4-yl)-7-azaspiro[3.5]non-1-en-7-yl)-1-methyl-1H-indole-3-carboxylic acid]	3970
Cn1c(C(=O)O)cc2ccc(N3CCC4(C=C(c5c(-c6c(Cl)cccc6Cl)noc5C5CC5)C4)CC3)cc21 [Example 128, 6-(2-(5-Cyclopropyl-3-(2,6-dichlorophenyl)isoxazol-4-yl)-7-azaspiro[3.5]non-1-en-7-yl)-1-methyl-1H-indole-2-carboxylic acid]	287
O=C(O)c1cnc2nc(N3CCC4(C=C(c5c(-c6c(Cl)cccc6Cl)noc5C5CC5)C4)CC3)sc2c1 [Example 177, 2-(2-(5-Cyclopropyl-3-(2,6-dichlorophenyl)isoxazol-4-yl)-7-azaspiro[3.5]non-1-en-7-yl)thiazolo[4,5-b]pyridine-6-carboxylic acid]	121
O=C(O)c1cc(F)c2nc(OC3CCC4(C=C(c5c(-c6c(Cl)cccc6Cl)noc5C5CC5)C4)CC3)sc2c1 (stereo not drawn) [Example 209, 2-((2-(5-Cyclopropyl-3-(2,6-dichlorophenyl)isoxazol-4-yl)spiro[3.5]non-1-en-7-yl)oxy)-4-fluorobenzo[d]thiazole-6-carboxylic acid]	1280
COc1cc(C(=O)O)nc2ccc(N3CCC4(C=C(c5c(-c6cccnc6C(F)(F)F)noc5C5CC5)C4)CC3)cc12 [Example 144, 6-(2-(5-Cyclopropyl-3-(2-(trifluoromethyl)pyridin-3-yl)isoxazol-4-yl)-7-azaspiro[3.5]non-1-en-7-yl)-4-methoxyquinoline-2-carboxylic acid]	156
